# Laboratory results: US11510931B2, “Compositions and methods for treating ophthalmic conditions” (MEDICON PHARMACEUTICALS, INC., priority 2016, dated 2022)
# Tests used:
# IL-6 = IL-6 in culture medium of human conjunctival cells (ELISA); format: cell-based
# Experimental: Cells were treated with PS 1×IC50 and 2 h later TNF-α was added to the medium to a final concentration of 10 ng/ml. Culture media were harvested 24 h later and the levels of TGF-β, IL-6 and IL-8 were determined by ELISA. Of note, the levels of IL-1β were below the limit of detection.
# PGE2 = PGE2 levels in tears and cornea of rabbits by ELISA; format: in vivo, rabbit
# Experimental: The effects of PS, ketorolac and dicofenac (the latter two ophthalmic NSAIDs known to induce corneal melt) on the tear levels of PGE2 in rabbits with concanavalin A-induced dry eye were compared. Three eye drops of PS 1.5% or of commercially available ketorolac 0.5% were given at 0 time, and 1 h later to rabbits with concanavalin A-induced DED. Tears were obtained at 2 h and the levels of PGE2 were determined by ELISA. PGE2 in tears of naïve rabbits (not exposed to concanavalin A nor treated) was also measured. The PGE2 levels (mean±SEM) were: Naïve, 110.4±12.6 ng/ml; PS-treated, 115.4±15.8 ng/ml; Ketorolac-treated, 77.7±8.7 ng/ml. The difference in PS vs. ketorolac was significant, p<0.02; as was the difference in ketorolac vs naïve, p<0.03. Regarding this parameter, PS differs radically form ketorolac, which induces corneal melt.
# Levels of PGE2 in the corneas of three groups of rabbits were determined by ELISA. Rabbits were treated with PS 1.6% or ketorolac 0.5% eye drops topically applied to their eyes or were not treated (naïve group). Results in pg/mg protein (mean±SEM). Naïve=787.3±96.3; PS=880.6±110.3; Ketrolorac=247.2±187.4 (p<0.01 vs PS).
# Rabbits with DED induced by concanavalin A as above were treated for 6 days with vehicle, or PS 2.3% or ketorolac 0.5% or diclofenac 0.1%. Compared to the vehicle group, on day 6 the PGE2 levels in the cornea were 106% of the vehicle value in the PS group (not a statistically significant difference), 1.3% in the ketorolac group (p<0.0001 vs. vehicle, and 2.3% in the diclofenac group (p<0.0001 vs. vehicle).
# It was determined that the levels of PGE2 in rabbit tears in three groups of rabbits, naïve and those with Con A-induced DED that were treated for 1 week either with PS or vehicle.
# In an acute experiment, administered once topically to the eyes of four groups of rabbits with Con A-induced DED was one of the following: vehicle, PS, ketorolac or diclofenac; the latter two are NSAIDs used for the treatment of ocular inflammation and pain. It was determined that the levels of PGE2 in the cornea of these rabbits obtained 1 h later as well as in the corneas of naïve rabbits.
# [1] = system: cornea of New Zealand white rabbits; assay: Corneal touch threshold (CTT), Cochet-Bonnet aesthesiometer; format: in vivo, rabbit
# Experimental: The analgesic effect of PS was determined by measuring the corneal touch threshold (CTT) using the Luneau Cochet-Bonnet Aeshesiometer (Western Ophthalmics, Lynwood, Wash.), an adjustable nylon monofilament with a defined diameter, which is applied in different lengths to the center of the cornea. This device is generally described in Lima L, Lange R R, Turner-Giannico A, Montiani-Ferreira F. Evaluation of standardized endodontic paper point tear test in New Zealand white rabbits and comparison between corneal sensitivity followed tear tests. Vet Ophthalmol. 2015; 18 Suppl 1:119-24.
# A stimulus produced by the filament that reaches the CTT induces a corneal reflex, consisting of prompt eyelid closure. The CTT is quantified as centimeter length of the filament necessary to cause the blink reflex.
# The CTT is determined before (baseline) and at various time points after the application of the test compound (PS). PS was formulated either in β-cyclodextrin (42 or 8 mg/ml) or in a nanocarrier (19 mg/ml). The test drug was formulated in a nanocarrier by the emulsion and evaporation method (Vauthier C, Bouchemal K. Methods for the Preparation and Manufacture of Polymeric Nanoparticles. Pharmaceutical Research; 2009; 26:1025-1058). The formulated stable drug suspension consisted of polylactic acid and polyethylene glycol (PLLA(10k)-PEG(2k)); sodium cholate; and PS. The vehicle control was either β-cyclodextrin or the nanocarrier without PS. Commercially available lidocaine 1% was used as a positive control.
# To each eye of adult New Zealand white rabbits was applied […] drops of PS or vehicle or lidocaine, with 5 minutes between each drop. The time of the last drop was taken as the 0 time.
# The analgesic effect of PS was further examined on the surface of the eye by determining the corneal touch threshold (CTT) using the Luneau Cochet-Bonnet Aesthesiometer (Western Ophthalmics, Lynwood, Wash.) an adjustable nylon monofilament with a defined diameter, which is applied in different lengths to the center of the cornea.
smiles,measurement,setting,value
"CCOP(=O)(OCC)OCCCCOC(=O)CC1=C(C)/C(=C/c2ccc([S+](C)[O-])cc2)c2ccc(F)cc21 (centres unmarked) [PS, phosphosulindac]",IL-6 reduction,"IL-6; TNF-α-stimulated, PS 1×IC50, media at 24 h",95%
same,IL-6 reduction,"IL-6; unstimulated levels, PS 1×IC50",84%
same,PGE2 levels in tears,"PGE2; Con A DED rabbits treated for 1 week, FIG. 9A",slightly lower than (but not significantly different from) those of naïve rabbits
same,PGE2 levels in the cornea,"PGE2; Con A DED rabbits, administered once topically, 1 h later, FIG. 9B",no different than those of vehicle-treated and naïve rabbits
same,"PGE2 levels in the cornea, % of the vehicle value","PGE2; Con A DED rabbits, day 6, PS 2.3%, ketorolac 0.5%, diclofenac 0.1%",106%
same,PGE2 levels in tears,"PGE2; Con A DED rabbits, three eye drops at 0 and 1 h, tears at 2 h, PS 1.5%, ketorolac 0.5%, mean±SEM",115.4 ± 15.8 ng/mL
same,PGE2 levels in the corneas,"PGE2; rabbits, PS 1.6% or ketorolac 0.5% eye drops, mean±SEM",880.6±110.3 pg/mg protein
same,Corneal touch threshold (CTT),"[1]; PS 8 mg/ml in β-cyclodextrin, 1 min",5.3 ± 0.7 centimeter
same,Corneal touch threshold (CTT),"[1]; PS 8 mg/ml in β-cyclodextrin, 5 min",5.4 ± 0.8 centimeter
same,Corneal touch threshold (CTT),"[1]; PS 8 mg/ml in β-cyclodextrin, 10 min",5.6 ± 0.5 centimeter
same,Corneal touch threshold (CTT),"[1]; PS 8 mg/ml in β-cyclodextrin, 20 min",5.6 ± 0.5 centimeter
same,Corneal touch threshold (CTT),"[1]; PS 8 mg/ml in β-cyclodextrin, 30 min",5.9 ± 0.3 centimeter
same,Corneal touch threshold (CTT),"[1]; PS 8 mg/ml in β-cyclodextrin, 45 min",5.9 ± 0.3 centimeter
same,Corneal touch threshold (CTT),"[1]; PS 8 mg/ml in β-cyclodextrin, 60 min",5.9 ± 0.3 centimeter
same,Corneal touch threshold (CTT),"[1]; PS 8 mg/ml in β-cyclodextrin, baseline",5.9 ± 0.3 centimeter
same,Corneal touch threshold (CTT),"[1]; PS 19 mg/ml in nanocarrier, 1 min",5.4 ± 0.6 centimeter
same,Corneal touch threshold (CTT),"[1]; PS 19 mg/ml in nanocarrier, 5 min",5.1 ± 0.8 centimeter
same,Corneal touch threshold (CTT),"[1]; PS 19 mg/ml in nanocarrier, 10 min",5.3 ± 0.8 centimeter
same,Corneal touch threshold (CTT),"[1]; PS 19 mg/ml in nanocarrier, 20 min",5.5 ± 0.7 centimeter
same,Corneal touch threshold (CTT),"[1]; PS 19 mg/ml in nanocarrier, 30 min",5.9 ± 0.2 centimeter
same,Corneal touch threshold (CTT),"[1]; PS 19 mg/ml in nanocarrier, 45 min",5.9 ± 0.4 centimeter
same,Corneal touch threshold (CTT),"[1]; PS 19 mg/ml in nanocarrier, 60 min",5.9 ± 0.2 centimeter
same,Corneal touch threshold (CTT),"[1]; PS 19 mg/ml in nanocarrier, baseline",5.9 ± 0.3 centimeter
same,Corneal touch threshold (CTT),"[1]; PS 42 mg/ml in β-cyclodextrin, 1 min",2.7 ± 1.0 centimeter
same,Corneal touch threshold (CTT),"[1]; PS 42 mg/ml in β-cyclodextrin, 5 min",3.1 ± 1.2 centimeter
same,Corneal touch threshold (CTT),"[1]; PS 42 mg/ml in β-cyclodextrin, 10 min",3.7 ± 1.3 centimeter
same,Corneal touch threshold (CTT),"[1]; PS 42 mg/ml in β-cyclodextrin, 20 min",4.1 ± 1.4 centimeter
same,Corneal touch threshold (CTT),"[1]; PS 42 mg/ml in β-cyclodextrin, 30 min",5.1 ± 1.0 centimeter
same,Corneal touch threshold (CTT),"[1]; PS 42 mg/ml in β-cyclodextrin, 45 min",5.6 ± 0.7 centimeter
same,Corneal touch threshold (CTT),"[1]; PS 42 mg/ml in β-cyclodextrin, 60 min",5.9 ± 0.2 centimeter
same,Corneal touch threshold (CTT),"[1]; PS 42 mg/ml in β-cyclodextrin, baseline",5.9 ± 0.2 centimeter
same,analgesia (CTT),"[1]; single eye drop, naïve rabbits, FIG. 10",essentially instantaneous and significant analgesia
